Measured values from PubChem BioAssay AID1918958 (Molecular Pharmacology Branch, DTP, NCI, 2023).
“And” between values parts separate entries of the source, which are not always exact repeats. Identical values can stand only once.

Tested on: NCI-H196 complex spheroid viability
Assay: Anticancer human tumor NCI-H196 cell line growth inhibition [LSD1];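 note: spheroids exposed to agents for 7 days before readout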;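 for viability, T/C: 100% = DMSO vehicle control viability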
Conditions: for viability, T/C: stronger effect = lower value; active = viability on the fitted dose curve at most 10% of control; inactive = the rest
Summary of the method: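 Drug combinations with the LSD1 inhibitor iadademstat tested on tumor cells co-cultured as spheroids with endothelial cells and mesenchymal stem cells. Concentrations descended in half-log increments from clinical Cmax or 10 microM.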

[1] = curve of first compound, second compound 0.1 µM
[2] = curve of first compound, second compound 0.316 µM
[3] = curve of first compound, second compound 1 µM
[4] = curve of first compound, second compound 3.16 µM
[5] = curve of first compound, second compound 10 µM
[6] = second compound 0.1 µM, first compound 0.000316 µM
[7] = second compound 0.1 µM, first compound 0.001 µM
[8] = second compound 0.1 µM, first compound 0.00316 µM
[9] = second compound 0.1 µM, first compound 0.01 µM
[10] = second compound 0.1 µM, first compound 0.0316 µM
[11] = second compound 0.1 µM, first compound 0.1 µM
[12] = second compound 0.316 µM, first compound 0.000316 µM
[13] = second compound 0.316 µM, first compound 0.001 µM
[14] = second compound 0.316 µM, first compound 0.00316 µM
[15] = second compound 0.316 µM, first compound 0.01 µM
[16] = second compound 0.316 µM, first compound 0.0316 µM
[17] = second compound 0.316 µM, first compound 0.1 µM
[18] = second compound 1 µM, first compound 0.000316 µM
[19] = second compound 1 µM, first compound 0.001 µM
[20] = second compound 1 µM, first compound 0.00316 µM
[21] = second compound 1 µM, first compound 0.01 µM
[22] = second compound 1 µM, first compound 0.0316 µM
[23] = second compound 1 µM, first compound 0.1 µM
[24] = second compound 3.16 µM, first compound 0.000316 µM
[25] = second compound 3.16 µM, first compound 0.001 µM
[26] = second compound 3.16 µM, first compound 0.00316 µM
[27] = second compound 3.16 µM, first compound 0.01 µM
[28] = second compound 3.16 µM, first compound 0.0316 µM
[29] = second compound 3.16 µM, first compound 0.1 µM
[30] = second compound 10 µM, first compound 0.000316 µM
[31] = second compound 10 µM, first compound 0.001 µM
[32] = second compound 10 µM, first compound 0.00316 µM
[33] = second compound 10 µM, first compound 0.01 µM
[34] = second compound 10 µM, first compound 0.0316 µM
[35] = second compound 10 µM, first compound 0.1 µM
[36] = second compound 0.1 µM, first compound 0.316 µM
[37] = second compound 0.1 µM, first compound 1 µM
[38] = second compound 0.316 µM, first compound 0.316 µM
[39] = second compound 0.316 µM, first compound 1 µM
[40] = second compound 1 µM, first compound 0.316 µM
[41] = second compound 1 µM, first compound 1 µM
[42] = second compound 3.16 µM, first compound 0.316 µM
[43] = second compound 3.16 µM, first compound 1 µM
[44] = second compound 10 µM, first compound 0.316 µM
[45] = second compound 10 µM, first compound 1 µM

CC(C)CC(NC(=O)CNC(=O)c1cc(Cl)ccc1Cl)B1OC(=O)CC(CC(=O)O)(C(=O)O)O1 (stereo not given) + NC1CC1c1ccc(-c2cccc(O)c2)cc1
active: viability, T/C [11] 4.21% | viability, T/C [17] 4.26% | viability, T/C [23] 4.69% | viability, T/C [29] 3.44% | viability, T/C [35] 2.91%
10.5 nM: IC50 [4]
13.4 nM: IC50 [2]
10.1 nM: IC50 [3]
13.6 nM: IC50 [1]
inactive: viability, T/C [6] 99.7% | viability, T/C [7] 100% | viability, T/C [8] 97.6% | viability, T/C [9] 58.7% | viability, T/C [10] 21.7% | viability, T/C [12] 92.7% | viability, T/C [13] 99.2% | viability, T/C [14] 92.8% | viability, T/C [15] 59.9% | viability, T/C [16] 19% | viability, T/C [18] 97.5% | viability, T/C [19] 106% | viability, T/C [20] 93.3% | viability, T/C [21] 48.8% | viability, T/C [22] 17% | viability, T/C [24] 91% | viability, T/C [25] 109% | viability, T/C [26] 89.2% | viability, T/C [27] 49.3% | viability, T/C [28] 19.2% | viability, T/C [30] 105% | viability, T/C [31] 98.8% | viability, T/C [32] 84.2% | viability, T/C [33] 52.9% | viability, T/C [34] 13.4%
10.2 nM: IC50 [5]

Cn1ncnc1C1c2n[nH]c(=O)c3cc(F)cc(c23)NC1c1ccc(F)cc1 (stereo not given)
inactive: viability, T/C (compound 0.000316 µM) 107% and 97.8% | viability, T/C (compound 0.001 µM) 104% and 106% | viability, T/C (compound 0.00316 µM) 99.1% and 105% | viability, T/C (compound 0.01 µM) 101% and 100% | viability, T/C (compound 0.0316 µM) 96.3% and 98.4% | viability, T/C (compound 0.1 µM) 96.8% and 95.6%
> 100 nM: IC50 (curve of compound)

Cn1ncnc1C1c2n[nH]c(=O)c3cc(F)cc(c23)NC1c1ccc(F)cc1 (stereo not given) + NC1CCC(NC2CC2c2ccccc2)CC1
> 100 nM: IC50 [1] | IC50 [2] | IC50 [3] | IC50 [4] | IC50 [5]
inactive: viability, T/C [6] 93.4% | viability, T/C [7] 110% | viability, T/C [8] 95.6% | viability, T/C [9] 94.8% | viability, T/C [10] 98.5% | viability, T/C [11] 99.6% | viability, T/C [12] 100% | viability, T/C [13] 102% | viability, T/C [14] 101% | viability, T/C [15] 92.8% | viability, T/C [16] 93.9% | viability, T/C [17] 92.5% | viability, T/C [18] 95.5% | viability, T/C [19] 98.4% | viability, T/C [20] 97.4% | viability, T/C [21] 98.1% | viability, T/C [22] 94.3% | viability, T/C [23] 94.4% | viability, T/C [24] 90.7% | viability, T/C [25] 99.8% | viability, T/C [26] 98.3% | viability, T/C [27] 88.8% | viability, T/C [28] 95.9% | viability, T/C [29] 93.9% | viability, T/C [30] 97.2% | viability, T/C [31] 106% | viability, T/C [32] 95.9% | viability, T/C [33] 104% | viability, T/C [34] 94.3% | viability, T/C [35] 91.3%

Nc1ncn(C2CC(O)C(CO)O2)c(=O)n1 (stereo not given) + NC1CCC(NC2CC2c2ccccc2)CC1
> 1000 nM: IC50 [1] | IC50 [2] | IC50 [3] | IC50 [4] | IC50 [5]
inactive: viability, T/C [8] 94.3% | viability, T/C [9] 96.1% | viability, T/C [10] 96.1% | viability, T/C [11] 92.5% | viability, T/C [36] 93.3% | viability, T/C [37] 93% | viability, T/C [14] 91% | viability, T/C [15] 97.4% | viability, T/C [16] 114% | viability, T/C [17] 96.7% | viability, T/C [38] 96.9% | viability, T/C [39] 99.3% | viability, T/C [20] 87.8% | viability, T/C [21] 94.9% | viability, T/C [22] 94.9% | viability, T/C [23] 88.5% | viability, T/C [40] 93.8% | viability, T/C [41] 101% | viability, T/C [26] 94.5% | viability, T/C [27] 95.8% | viability, T/C [28] 99.2% | viability, T/C [29] 89.6% | viability, T/C [42] 87.1% | viability, T/C [43] 91.2% | viability, T/C [32] 91.2% | viability, T/C [33] 94.8% | viability, T/C [34] 91.2% | viability, T/C [35] 87.5% | viability, T/C [44] 92.9% | viability, T/C [45] 91.3%

Nc1ncn(C2CC(O)C(CO)S2)c(=O)n1 (stereo not given)
inactive: viability, T/C (compound 0.000949 µM) 96.8% and 102% | viability, T/C (compound 0.003 µM) 105% and 111% | viability, T/C (compound 0.00949 µM) 103% and 106% | viability, T/C (compound 0.03 µM) 106% and 111% | viability, T/C (compound 0.0949 µM) 111% and 116% | viability, T/C (compound 0.3 µM) 100% and 104%
> 300 nM: IC50 (curve of compound)

CCc1c2c(nc3ccc(O)cc13)-c1cc3c(c(=O)n1C2)COC(=O)[C@]3(O)CC
active: viability, T/C (compound 0.03 µM) 2.96% and 3.28% | viability, T/C (compound 0.0949 µM) 1.29% and 0.86% | viability, T/C (compound 0.3 µM) 1.52% and 0.88%
inactive: viability, T/C (compound 0.000949 µM) 99.5% and 104% | viability, T/C (compound 0.003 µM) 103% and 96.6% | viability, T/C (compound 0.00949 µM) 52.9% and 47.5%
10.1 nM and 8.88 nM: IC50 (curve of compound)

CC(C)c1c(-c2ccccc2)nc2c(C#N)c[nH]n2c1=O + NC1CCC(NC2CC2c2ccccc2)CC1
inactive: viability, T/C [10] 104% | viability, T/C [11] 105% | viability, T/C [36] 114% | viability, T/C [37] 94.2% | viability, T/C (second compound 0.1 µM, first compound 3.16 µM) 90.7% | viability, T/C (second compound 0.1 µM, first compound 10 µM) 95.6% | viability, T/C [16] 101% | viability, T/C [17] 101% | viability, T/C [38] 107% | viability, T/C [39] 98.2% | viability, T/C (second compound 0.316 µM, first compound 3.16 µM) 90% | viability, T/C (second compound 0.316 µM, first compound 10 µM) 84.9% | viability, T/C [22] 97.4% | viability, T/C [23] 93.3% | viability, T/C [40] 96.4% | viability, T/C [41] 94.1% | viability, T/C (second compound 1 µM, first compound 3.16 µM) 91.7% | viability, T/C (second compound 1 µM, first compound 10 µM) 90.7% | viability, T/C [28] 97.7% | viability, T/C [29] 104% | viability, T/C [42] 98.5% | viability, T/C [43] 93.4% | viability, T/C (second compound 3.16 µM, first compound 3.16 µM) 94.3% | viability, T/C (second compound 3.16 µM, first compound 10 µM) 88% | viability, T/C [34] 98.7% | viability, T/C [35] 97.1% | viability, T/C [44] 99.1% | viability, T/C [45] 102% | viability, T/C (second compound 10 µM, first compound 3.16 µM) 83.4% | viability, T/C (second compound 10 µM, first compound 10 µM) 89%
> 10000 nM: IC50 [1] | IC50 [2] | IC50 [3] | IC50 [4] | IC50 [5]

COc1cc(C2c3cc4c(cc3C(OC3OC5COC(C)OC5C(O)C3O)C3COC(=O)C23)OCO4)cc(OC)c1O (stereo not given)
> 3000 nM: IC50 (curve of compound)
inactive: viability, T/C (compound 0.00949 µM) 98.3% and 98.5% | viability, T/C (compound 0.03 µM) 99.7% and 101% | viability, T/C (compound 0.0949 µM) 98.6% and 112% | viability, T/C (compound 0.3 µM) 108% and 112% | viability, T/C (compound 0.949 µM) 90.5% and 81.5% | viability, T/C (compound 3 µM) 65.7% and 59.9%

Nc1ncn(C2CC(O)C(CO)O2)c(=O)n1 (stereo not given)
inactive: viability, T/C (compound 0.00316 µM) 106% and 105% | viability, T/C (compound 0.01 µM) 92.3% and 102% | viability, T/C (compound 0.0316 µM) 95.5% and 99.8% | viability, T/C (compound 0.1 µM) 101% and 103% | viability, T/C (compound 0.316 µM) 100% and 102% | viability, T/C (compound 1 µM) 93.5% and 97.9%
> 1000 nM: IC50 (curve of compound)
